In brackets after ≈: the same amount, converted by molar mass.
How the values were obtained:
Format in all cases: functional
Aspergillus niger = test: Antifungal activity against Aspergillus niger NCIM 945 by serial dilution method
Aspergillus flavus = test: Antifungal activity against Aspergillus flavus NCIM 536 by serial dilution method
Fusarium oxysporum = test: Antifungal activity against Fusarium oxysporum NCIM 1008 by serial dilution method
Penicillium chrysogenum = test: Antifungal activity against Penicillium chrysogenum NCIM 725 by serial dilution method

MIC (Aspergillus niger)	MIC (Aspergillus flavus)	MIC (Fusarium oxysporum)	MIC (Penicillium chrysogenum)	Compound
62 µg/mL (≈ 149 µM)	32 µg/mL (≈ 77 µM)	250 µg/mL (≈ 602 µM)	125 µg/mL (≈ 301 µM)	COc1ccc(/C=N/n2c(SCc3ccccc3)nnc2-c2ccccc2N)cc1
125 µg/mL (≈ 298 µM)	125 µg/mL (≈ 298 µM)	62 µg/mL (≈ 148 µM)	31 µg/mL (≈ 73.8 µM)	Nc1ccccc1-c1nnc(SCc2ccccc2)n1/N=C/c1ccc(Cl)cc1
31 µg/mL (≈ 77.2 µM)	250 µg/mL (≈ 623 µM)	250 µg/mL (≈ 623 µM)	125 µg/mL (≈ 311 µM)	COc1ccc(/C=N/n2c(SCc3ccccc3)nnc2-c2ccncc2)cc1
62 µg/mL (≈ 145 µM)	125 µg/mL (≈ 292 µM)	32 µg/mL (≈ 74.7 µM)	250 µg/mL (≈ 583 µM)	CN(C)c1ccc(/C=N/n2c(SCc3ccccc3)nnc2-c2ccccc2N)cc1
